The values that follow are results of earlier work, collected in patent US7780990B2, “Combination therapeutic compositions and method of use” (priority 2005, dated 2010).

The conditions of this data set: intravenous infusion 30 g over 30 min, patients with type II diabetes.

For the compound `C[N+](C)(C)CC(=O)O` [betaine, glycine betaine], the blood pressure result was “reduces blood pressure” and the haemodynamic functions result is reported as “improves haemodynamic functions”.
